Experimental data: patent US9045415B2, “Targeting of EWS-FLI1 as anti-tumor therapy” (Georgetown University, priority 2006, dated 2015)
Residues, ends and D or L forms follow the SMILES beside them. *: point of attachment. FITC = O=C1OC2(c3ccc(O)cc3Oc3cc(O)ccc32)c2ccc(NC(=S)*)cc21

What was measured:
RHA binding to EWS-FLI1 [1] = experiment: Solution immunoprecipitation of GST-RHA with recombinant EWS-FLI1; parameters: species or system human
Description: E9RP is the peptide region of RHA (E9R; SEQ ID NO: 29) fused to the Penetratin peptide (from the Antennapedia homeodomain; SEQ ID NO: 34). Immunoprecipitation of GST-RHA using recombinant EWS-FLI1 bound to a FLI1 antibody. […] E9RP is the sequence of aa 823-832 of human RHA that were synthesized.
(§1) In FIG. 13A, recombinant EWS-FLI1 was treated with NSC635437 for 30 minutes. GST-RHA (630-1020) was added and the complexes were then precipitated with antibody to EWS-FLI1 and Protein G beads. Resolved complexes showing the immunoprecipitated complex control without compound are in lanes 3 (0.1% DMSO) and 5 (0.01% DMSO). […] ESFT TC32 (◯) and neuroblastoma SK-N-AS (▪) were grown for 72 hours in the continuous presence of NSC635437. Cells were incubated in MTT reagent for 4 hours and the dried precipitate was dissolved isopropanol and the absorbance read at 570 nm. Each cell line was standardized to the growth of the DMSO control.
Protein lysates and immunoprecipitations were performed as previously published (Uren et al (2005)). Recombinant GST-RHA (647-1075) was prepared from crude bacterial extracts without further purification.
Reagents were developed to block RHA binding to EWS-FLI1 since RHA is necessary for optimal EWS-FLI1 activity. The E9R peptide corresponds to amino acids 823 to 832, located in the proximal HA2 region of RHA (FIG. 29A). A cell-free protein interaction assay was developed to test whether E9R peptide inhibits RHA binding to EWS-FLI1. […] It was determined whether disrupted EWS-FLI1/RHA binding inhibited cell growth.

[2] = system: neuroblastoma SKNAS cells; experiment: Monolayer cell growth, neuroblastoma; type: cell-based; settings: E9RP 10 μM; seven days
Text: (§2) FIGS. 8A-E show E9RP inhibits ESFT cell growth. In FIGS. 8A and 8B, E9RP is the peptide region of RHA (SEQ ID NO:29) fused to the Penetratin peptide (from the Antennapedia homeodomain; SEQ ID NO:34) and contains amino-terminal fluorescein (FITC). […] Neither lipids nor electricity were used for transduction of peptides into cells. Confocal microscopy identified peptide throughout cells with nuclear uptake. Nuclear uptake was confirmed by DAPI staining. […] Cell lines were placed in 96-well plates with either vehicle alone (●), or E9RP (10 μM) on days 0, 3 and 5 (▴). No lipid or other transfection method was utilized. This represents two experiments with similar results. FIG. 8D depicts dose response of ESFT 1 to either wild-type or single amino-acid mutant peptides. (▪) wild-type E9RP, (E9R (SEQ ID NO:29) fused to the Penetratin peptide (SEQ ID NO:34)), (▾)(E9RP (P2A peptide (SEQ ID NO:30) fused to the Penetratin peptide (SEQ ID NO:34)), (▴)E9RP (D5A peptide (SEQ ID NO:31) fused to the Penetratin peptide (SEQ ID NO:34)). Growth normalized to treating cells with the 16 aa Antp sequence alone (SEQ ID NO:34). FIG. 8E is a comparison of wild-type versus mutant peptides in ESFT and NB cells.
as §1
(§3) FIG. 30 provides data to show E9R peptide prevents EWS-FLI1 binding to RHA with specific detrimental effects upon ESFT growth and transformation. […] Scale bar equals 20 μm. […] Only expression of EGFP-E9R in TC71 reduced anchorage independent growth. […] Scale bar equals 20 μm.

[3] = system: ESFT cell lines TC32 (ESFT 1) and 5838 (ESFT 2); experiment: Peptide growth inhibition, ESFT cell lines 1 and 2; type: cell-based; settings: 10 μM on days 0, 3 and 5; seven days
Text: as §2

TC32 cells = experiment: Monolayer cell growth (MTT or WST), TC32; type: cell-based; settings: TC32 monolayer, 10 μM
Description: as §1, §3
FIG. 33 provides data showing YK-4-279 is potent and specific inhibitor of ESFT. […] Cell number was measured by MTT or WST reduction after seven days in culture. […] FIG. 33D cell lines expressing EWS-FLI1 compared to non-EWS-FLI1 malignant cell lines following 3 days in culture to establish the IC50 using WST assay. […] Graph plots level of fluorescence in treated divided by untreated lysate. […] Scale bar equals 200 μm.

RHA binding to EWS-FLI1 [4] = experiment: Competitive ELISA, RHA binding to EWS-FLI1; settings: RHA 4 nM, E9RP 0.01-30 μM; read-out: IC50, prevention of RHA binding to EWS-FLI1
Description: (§4) E9RP is the peptide region of RHA (E9R; SEQ ID NO: 29) fused to the Penetratin peptide (from the Antennapedia homeodomain; SEQ ID NO: 34). In FIG. 5A, E9RP was used in a competition experiment for blocking binding of RHA to EWS-FLI1. Wells were coated with 500 ng EWS-FLI1. RHA (4 nM) was added on to wells in the presence of E9RP (0.01-30 μM). In FIG. 5B, wells were coated with 500 ng/well recombinant CBP. RHA (4 nM) was added to wells with E9RP (0.01-30 μM).
(§5) E9RP was evaluated for the ability to block RHA from binding to EWS-FLI1 using both competitive ELISA assay and solution immunoprecipitation assays. In addition, specificity of interaction was evaluated by disrupting EWS-FLI1 binding from RHA without interfering with other RHA binding proteins. Creb-binding protein (CBP, p300) is critical to cellular basal transcription, so it was determined if a peptide that would disrupt EWS-FLI1 binding from RHA could also disrupt CBP binding.

CBP (aa 1680-1890) = CBP (aa 1680-1890) (Homo sapiens, UniProt Q92793); experiment: Competitive ELISA, RHA binding to CBP; settings: RHA 4 nM, E9RP 0.01-30 μM
Sequence of CBP (aa 1680-1890) (Q92793 1680-1890): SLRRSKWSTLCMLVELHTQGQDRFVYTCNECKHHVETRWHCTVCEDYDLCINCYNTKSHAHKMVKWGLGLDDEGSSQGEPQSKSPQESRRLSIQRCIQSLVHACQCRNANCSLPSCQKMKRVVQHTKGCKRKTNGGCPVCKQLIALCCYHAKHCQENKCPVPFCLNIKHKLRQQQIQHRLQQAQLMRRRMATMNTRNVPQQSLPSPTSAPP
Description: as §4, §5

[5] = system: two additional sarcoma cell lines, lacking EWS-FLI1; experiment: Peptide growth inhibition, additional sarcoma cell lines; type: cell-based; settings: data not shown
[6] = system: SKNAS (neuroblastoma) cells; experiment: Soft-agar anchorage-independent growth, SKNAS expressing E9R; type: cell-based; settings: expressed E9R
Text: as §3

TC71 (ESFT) cells = experiment: Soft-agar anchorage-independent growth, TC71 expressing E9R; type: cell-based
Text: (§6) Plasmids that express E9R fused to enhanced green fluorescent protein (EGFP) were transfected into either Ewing's Sarcoma (TC71) or rhabdomyosarcoma (RP) cells and placed in soft-agar for anchorage-independent growth. The pGE9R plasmid diffusely expressed E9R while the pGCE9R plasmid contained a nuclear export sequence to prevent expressed peptide from entering the nucleus. The transfected cells were placed in soft agar culture for 2 weeks and stained with MTT. When E9R was diffusely expressed, including the nucleus, ESFT (containing EWS-FLI1) soft-agar colony growth was suppressed.
as §3
Since the Antp peptides added to media would not remain in the cells for 2 weeks during soft-agar colony growth, expression peptides were used to provide continuous exposure to peptide. A pair of expression plasmids with cloning sites downstream of the enhanced green fluorescent protein (EGFP) was obtained; the pG plasmid contained no localizing sequence and was expressed throughout the cells (FIG. 9, left panels). The pGC plasmids contained a nuclear export sequence that blocked peptide transport into the nucleus (FIG. 9, right panels). […]

EWS-FLI1 = experiment: SPR displacement assay of E9R from EWS-FLI1; type: binding
Text: FIG. 31 provides data showing a small molecule binding to EWS-FLI1 and displaces E9R from EWS-FLI1. […] Aromatic functionalization produced YK-4-279 a para-methoxy derivative of NSC635437. […] A FLI1 antibody complexed EWS-FLI1 and precipitated it from the solution.
An aromatic optimization strategy was used to design analogs to improve upon the activity of NSC635437.

ESFT cells TC71 = experiment: Xenografts of TC71 cells transfected with E9R expression plasmids; type: in vivo, mice; settings: pGE9R vs pGE9R-D5A, 26 days
Description: ESFT cells TC71 were transfected with pGE9R (wild-type sequence peptide (SEQ ID NO: 29)) or pGE9R-D5A (control, mutated peptide; D5A (SEQ ID NO: 31)). In FIG. 10A, fluorescent micrographs of transfected cells after 4 days in culture are presented. […] Bar equals 300 microns. In FIG. 10B, each group contains six mice. Mice legs were measured every 2-3 days. Tumors appeared in 2 weeks. The experiment was terminated after 26 days when the largest tumor caused the mouse to limp. Tumor volumes were calculated according to (D×d2/6)×π formula, where large diameter of tumor mass is D and small diameter is d. 2-way ANOVA analysis, followed by Bonferroni correction for multiple variables, the difference in the two growth curves was highly significant, p=0.016.
The ability of the E9R peptide sequence to prevent ESFT tumorigenesis in a pilot murine xenograft experiment was determined. As a control peptide, the same mutation that prevented wild-type RHA from binding to EWS-FLI1 (D827A, noted in the 10-mer peptide as E9R-D5A) was created. ESFT cells were transfected with either pGE9R or pGE9R-D5A by electroporation. A transfection efficiency of greater than 80% using fluorescent microscopy (FIG. 10A) was observed. […] Every two to three days, each animal's thigh was measured in three dimensions, and tumor volumes were calculated. […]

rhabdomyosarcoma cells = experiment: Soft-agar anchorage-independent growth, rhabdomyosarcoma cells expressing E9R; type: cell-based; settings: E9R expression
Text: as §6
Since the Antp peptides added to media would not remain in the cells for 2 weeks during soft-agar colony growth, expression peptides were used to provide continuous exposure to peptide. A pair of expression plasmids with cloning sites downstream of the enhanced green fluorescent protein (EGFP) was obtained; the pG plasmid contained no localizing sequence and was expressed throughout the cells (FIG. 9, left panels). The pGC plasmids contained a nuclear export sequence that blocked peptide transport into the nucleus (FIG. 9, right panels). The E9R DNA sequence was synthesized and the hybridized oligodeoxynucleotides were inserted into the cloning site downstream of either EGFP or EGFP and nuclear export sequence.

| IC50 (RHA binding to EWS-FLI1 [1]; GST-RHA (630-1020), read-out: IC50 to prevent complex formation) | IC50 (RHA binding to EWS-FLI1 [4]) | effect upon the binding of CBP (CBP (aa 1680-1890)) | concentration giving decreased association to 50% (RHA binding to EWS-FLI1 [1]; GST-RHA (647-1075) and full-length EWS-FLI1) | binding of E9R to EWS-FLI1 (EWS-FLI1; 32 μM E9R alone) | binding of E9R to EWS-FLI1 (EWS-FLI1; 64 μM E9R alone) | Molecule | cell growth [2] | cell growth [3] | ESFT cell growth with fluorescein conjugated peptides (TC32 cells) | cell growth [5] | anchorage-independent growth [6] | reduction of TC71 colony formation (TC71 (ESFT) cells; E9R expressed as EGFP fusion throughout the cell) | soft agar colony growth (TC71 (ESFT) cells; E9R expressed throughout cells (pGE9R)) | xenograft growth of cells expressing peptide (ESFT cells TC71) | soft agar colony growth (rhabdomyosarcoma cells) |
| --- | --- | --- | --- | --- | --- | --- | --- | --- | --- | --- | --- | --- | --- | --- | --- |
| ~0.1 µM | ~0.2 µM | lacking a dose-dependent effect | – | – | – | CC[C@H](C)[C@H](NC(=O)[C@H](CCCCN)NC(=O)[C@@H](NC(=O)[C@H](CCC(N)=O)NC(=O)[C@H](CCCNC(=N)N)NC(=S)Nc1ccc2c(c1)C(=O)OC21c2ccc(O)cc2Oc2cc(O)ccc21)[C@@H](C)CC)C(=O)N[C@@H](Cc1c[nH]c2ccccc12)C(=O)N[C@@H](Cc1ccccc1)C(=O)N[C@@H](CCC(N)=O)C(=O)N[C@@H](CC(N)=O)C(=O)N[C@@H](CCCNC(=N)N)C(=O)N[C@@H](CCCNC(=N)N)C(=O)N[C@@H](CCSC)C(=O)N[C@@H](CCCCN)C(=O)N[C@@H](Cc1c[nH]c2ccccc12)C(=O)N[C@@H](CCCCN)C(=O)N[C@@H](CCCCN)C(=O)N1CCC[C@H]1C(=O)N1CCC[C@H]1C(=O)N1CCC[C@H]1C(=O)N[C@@H](CC(C)C)C(=O)N[C@@H](CC(=O)O)C(=O)N[C@@H](C)C(=O)N[C@H](C(=O)N[C@H](C(=O)N[C@@H](CCC(=O)O)C(=O)N[C@@H](C)C(=O)O)[C@@H](C)CC)C(C)C [E9RP] ({FITC}-RQIKIWFQNRRMKWKKPPPLDAVIEA-OH; C-terminus assumed) | did not affect the growth | inhibited the growth | significantly reduced ESFT cell growth | not growth inhibited | – | – | – | – | – |
| – | – | – | 0.1 µM | 13 R.U. | 17 R.U. | PPPLDAVIEA [E9R, peptide corresponding to aa 823-832 of human RHA] | – | – | – | – | not affected | 95% | suppressed | reduces ESFT xenografts growth | not reduced |
